# Test results from the supplement of paper PMC10307832.
# Key:
# Test in all cases: relative viability (nuclei count vs DMSO), 5 days (fraction); higher = more cells survive
# Sunitinib + Palbociclib = compound: CCN(CC)CCNC(=O)c1c(C)[nH]c(/C=C2\C(=O)Nc3ccc(F)cc32)c1C [Sunitinib] + CC(=O)c1c(C)c2cnc(Nc3ccc(N4CCNCC4)cn3)nc2n(C2CCCC2)c1=O [Palbociclib] (partner 0.5 µM)
# Method in brief: (§1)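 Lung cancer cell lines in 1536-well plates were dosed by pin tool the day after seeding, either with one drug alone or with a fixed anchor-drug dose plus five library-drug doses (not always all listed) in √10 steps. After 5 days, cells were fixed and their nuclei stained in one step (final 0.05% Triton X-100, 1% formaldehyde, 1 ug/ml Hoechst), then counted on 4× images. Relative viability is the nuclei count in treated wells divided by that in vehicle wells. Values are medians of duplicate plates.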
# Sunitinib + Crizotinib = compound: CCN(CC)CCNC(=O)c1c(C)[nH]c(/C=C2\C(=O)Nc3ccc(F)cc32)c1C [Sunitinib] + C[C@@H](Oc1cc(-c2cnn(C3CCNCC3)c2)cnc1N)c1c(Cl)ccc(F)c1Cl [Crizotinib] (partner 1 µM)
# Method in brief: as §1
# Sunitinib + AZD7762 = compound: CCN(CC)CCNC(=O)c1c(C)[nH]c(/C=C2\C(=O)Nc3ccc(F)cc32)c1C [Sunitinib] + NC(=O)Nc1cc(-c2cccc(F)c2)sc1C(=O)N[C@H]1CCCNC1 [AZD7762] (partner 0.2 µM)
# Method in brief: as §1
# Sunitinib + Vorinostat = compound: CCN(CC)CCNC(=O)c1c(C)[nH]c(/C=C2\C(=O)Nc3ccc(F)cc32)c1C [Sunitinib] + O=C(CCCCCCC(=O)Nc1ccccc1)NO [Vorinostat] (partner 1 µM)
# Method in brief: as §1
Cell Line,relative viability (Sunitinib + Palbociclib; first compound 0.02 µM),relative viability (Sunitinib + Palbociclib; first compound 0.06325 µM),relative viability (Sunitinib + Palbociclib; first compound 0.2 µM),relative viability (Sunitinib + Palbociclib; first compound 0.6325 µM),relative viability (Sunitinib + Palbociclib; first compound 2 µM),relative viability (Sunitinib + Crizotinib; first compound 0.02 µM),relative viability (Sunitinib + Crizotinib; first compound 0.06325 µM),relative viability (Sunitinib + Crizotinib; first compound 0.2 µM),relative viability (Sunitinib + Crizotinib; first compound 0.6325 µM),relative viability (Sunitinib + AZD7762; first compound 0.06325 µM),relative viability (Sunitinib + AZD7762; first compound 0.2 µM),relative viability (Sunitinib + AZD7762; first compound 0.6325 µM),relative viability (Sunitinib + AZD7762; first compound 2 µM),relative viability (Sunitinib + Vorinostat; first compound 0.02 µM),relative viability (Sunitinib + Vorinostat; first compound 0.06325 µM),relative viability (Sunitinib + Vorinostat; first compound 0.6325 µM),relative viability (Sunitinib + Vorinostat; first compound 2 µM),relative viability (Sunitinib + Crizotinib; first compound 2 µM),relative viability (Sunitinib + AZD7762; first compound 0.02 µM),relative viability (Sunitinib + Vorinostat; first compound 0.2 µM)
NCI-H441,0.223,0.233,0.237,0.232,0.221,0.686,0.802,0.831,0.858,1.25,1.36,1.24,1.17,0.67,0.833,0.984,0.85,–,–,–
NCI-H460,0.157,0.189,0.124,0.226,0.171,0.874,0.945,1.2,1.17,0.592,0.615,0.659,0.568,0.667,0.848,0.91,0.836,0.638,0.653,1.01
NCI-H647,0.328,0.398,0.406,0.43,0.316,0.988,0.998,1.19,1.15,0.48,0.546,0.642,0.469,0.469,0.572,0.648,0.643,0.941,0.482,0.795
NCI-H650,0.298,0.338,0.308,0.355,0.396,0.687,0.656,0.738,0.717,1.15,0.945,1.1,0.944,0.382,0.439,0.55,0.395,0.78,0.882,0.423
NCI-H727,0.598,0.697,0.671,0.616,0.667,0.724,0.832,0.808,0.926,0.575,0.554,0.612,0.618,1.12,1.22,1.18,1.25,0.738,0.652,1.18
NCI-H838,0.221,0.23,0.237,0.227,0.2,0.768,0.863,0.916,0.884,0.907,1.01,0.993,0.884,0.715,0.803,0.725,0.65,0.64,0.956,0.758
NCI-H1355,0.41,0.393,0.44,0.382,0.393,0.982,1.08,1.25,1.1,0.845,0.859,0.767,0.689,0.638,0.75,0.751,0.678,1.12,0.764,0.793
NCI-H1437,0.294,0.347,0.305,0.346,0.329,0.979,0.959,1.09,0.909,1.14,1.15,1.13,1.07,0.804,0.839,0.887,–,0.899,1.09,0.876
NCI-H1651,0.488,0.539,0.516,0.498,0.55,0.866,0.843,0.89,0.921,0.478,0.451,0.441,0.449,0.514,0.736,0.5,0.514,0.917,0.462,0.591
NCI-H1666,0.655,0.665,0.677,0.657,0.621,1.06,0.978,1.08,1.19,1.02,0.907,0.895,0.886,1.12,1.06,0.996,–,1.07,0.782,1.11
NCI-H1734,0.364,0.375,0.37,0.34,0.323,0.645,0.738,0.866,0.746,0.592,0.635,0.543,0.518,0.694,0.91,0.782,0.782,0.724,0.436,1.05
NCI-H1755,0.423,0.46,0.49,0.459,0.468,0.753,0.874,0.89,0.904,0.478,0.53,0.408,0.421,0.735,0.878,0.758,0.842,0.857,0.414,0.897
NCI-H1915,0.472,0.545,0.573,0.502,0.579,–,0.911,0.998,0.911,0.741,0.601,0.749,0.75,0.483,0.538,0.5,0.505,0.966,0.678,0.562
NCI-H1944,0.337,0.317,0.378,0.346,0.339,–,1.06,1.34,1.24,0.481,0.656,0.63,0.506,0.547,0.736,0.625,0.559,1.18,0.435,0.659
NCI-H1975,0.531,0.715,0.76,0.727,0.473,0.885,0.96,1.05,0.954,0.679,0.723,0.705,0.579,0.693,0.714,0.733,0.666,–,0.748,0.77
NCI-H1993,0.635,0.7,0.687,0.815,0.622,0.846,0.741,0.872,0.966,0.757,0.782,0.761,0.845,0.857,0.727,0.747,0.9,0.74,0.723,0.911
